# From ChEMBL document CHEMBL2396516, “Synthesis of novel bis(pyrimido[5,4-c]quinoline-2,4(1H,3H)-dione) and its derivatives: evaluation of their antioxidant properties” (Bioorg Med Chem Lett, 2013)
# What was measured:
# Type in all cases: functional
# [1] = Antioxidant activity assessed as reduction of ferric ion to ferrous ion by FRAP assay
# [2] = test system: Radical scavenging activity; experiment: Antioxidant activity assessed as DPPH free radical scavenging activity at 20 ug/ml by spectrophotometry
# [3] = test system: Radical scavenging activity; experiment: Antioxidant activity assessed as DPPH free radical scavenging activity by spectrophotometry
IC50 [1],IC50 [3],SMILES,Activity [2]
34.93 µg/mL,14.34 µg/mL,O=c1[nH]c(=S)[nH]c2c1C(c1cccc([N+](=O)[O-])c1)Nc1nc3c(cc1-2)-c1[nH]c(=S)[nH]c(=O)c1C(c1cccc([N+](=O)[O-])c1)N3 (stereo not drawn),70.1%
26.06 µg/mL,13.48 µg/mL,O=c1[nH]c2c(c(=O)[nH]1)C(c1ccc([N+](=O)[O-])cc1)Nc1nc3c(cc1-2)-c1[nH]c(=O)[nH]c(=O)c1C(c1ccc([N+](=O)[O-])cc1)N3 (stereo not drawn),74.2%
25.21 µg/mL,12.17 µg/mL,O=c1[nH]c(=S)[nH]c2c1C(c1ccc([N+](=O)[O-])cc1)Nc1cc3c(cc1-2)NC(c1ccc([N+](=O)[O-])cc1)c1c-3[nH]c(=S)[nH]c1=O (stereo not drawn),82.3%
23.21 µg/mL,11.8 µg/mL,O=c1[nH]c2c(c(=O)[nH]1)C(c1ccc(Cl)cc1)Nc1cc3c(cc1-2)NC(c1ccc(Cl)cc1)c1c-3[nH]c(=O)[nH]c1=O (stereo not drawn),85.2%
24.01 µg/mL,12.05 µg/mL,O=c1[nH]c2c(c(=O)[nH]1)C(c1ccccc1Cl)Nc1cc3c(cc1-2)NC(c1ccccc1Cl)c1c-3[nH]c(=O)[nH]c1=O (stereo not drawn),84%
–,18.91 µg/mL,O=c1[nH]c2c(c(=O)[nH]1)C(c1ccccc1)c1ccccc1N2 (stereo not drawn),–
25 µg/mL,12.36 µg/mL,O=c1[nH]c(=S)[nH]c2c1C(c1ccc(Cl)cc1)Nc1nc3c(cc1-2)-c1[nH]c(=S)[nH]c(=O)c1C(c1ccc(Cl)cc1)N3 (stereo not drawn),80.9%
33.28 µg/mL,12.39 µg/mL,O=c1[nH]c2c(c(=O)[nH]1)C(c1cccc([N+](=O)[O-])c1)Nc1cc3c(cc1-2)NC(c1cccc([N+](=O)[O-])c1)c1c-3[nH]c(=O)[nH]c1=O (stereo not drawn),81.7%
30.47 µg/mL,13.6 µg/mL,O=c1[nH]c(=S)[nH]c2c1C(c1ccccc1[N+](=O)[O-])Nc1nc3c(cc1-2)-c1[nH]c(=S)[nH]c(=O)c1C(c1ccccc1[N+](=O)[O-])N3 (stereo not drawn),73.6%
33.91 µg/mL,14.21 µg/mL,O=c1[nH]c2c(c(=O)[nH]1)C(c1ccccc1)Nc1nc3c(cc1-2)-c1[nH]c(=O)[nH]c(=O)c1C(c1ccccc1)N3 (stereo not drawn),70.6%

# Further lines, the molecule ahead of its results:
SMILES,IC50 [1],IC50 [3],Activity [2]
O=c1[nH]c2c(c(=O)[nH]1)C(c1ccccc1)Nc1cc3c(cc1-2)NC(c1ccccc1)c1c-3[nH]c(=O)[nH]c1=O (stereo not drawn),32.76 µg/mL,12.15 µg/mL,82%
O=c1[nH]c(=S)[nH]c2c1C(c1cccc([N+](=O)[O-])c1)Nc1cc3c(cc1-2)NC(c1cccc([N+](=O)[O-])c1)c1c-3[nH]c(=S)[nH]c1=O (stereo not drawn),33.7 µg/mL,12.68 µg/mL,79.3%
O=c1[nH]c(=S)[nH]c2c1C(c1ccc([N+](=O)[O-])cc1)Nc1nc3c(cc1-2)-c1[nH]c(=S)[nH]c(=O)c1C(c1ccc([N+](=O)[O-])cc1)N3 (stereo not drawn),26.25 µg/mL,13.56 µg/mL,74%
O=c1[nH]c2c(c(=O)[nH]1)C(c1ccccc1Cl)Nc1nc3c(cc1-2)-c1[nH]c(=O)[nH]c(=O)c1C(c1ccccc1Cl)N3 (stereo not drawn),25.51 µg/mL,12.42 µg/mL,80.8%
O=c1[nH]c2c(c(=O)[nH]1)C(c1ccc(Cl)cc1)Nc1nc3c(cc1-2)-c1[nH]c(=O)[nH]c(=O)c1C(c1ccc(Cl)cc1)N3 (stereo not drawn),24.41 µg/mL,12.35 µg/mL,81.1%
O=c1[nH]c(=S)[nH]c2c1C(c1ccc(Cl)cc1)Nc1cc3c(cc1-2)NC(c1ccc(Cl)cc1)c1c-3[nH]c(=S)[nH]c1=O (stereo not drawn),24.11 µg/mL,11.93 µg/mL,84.4%
O=c1[nH]c2c(c(=O)[nH]1)C(c1ccc([N+](=O)[O-])cc1)Nc1cc3c(cc1-2)NC(c1ccc([N+](=O)[O-])cc1)c1c-3[nH]c(=O)[nH]c1=O (stereo not drawn),25.01 µg/mL,12.44 µg/mL,80.9%
O=c1[nH]c2c(c(=O)[nH]1)C(c1ccccc1[N+](=O)[O-])Nc1cc3c(cc1-2)NC(c1ccccc1[N+](=O)[O-])c1c-3[nH]c(=O)[nH]c1=O (stereo not drawn),29.08 µg/mL,12.07 µg/mL,82.7%
O=c1[nH]c(=S)[nH]c2c1C(c1ccccc1)Nc1nc3c(cc1-2)-c1[nH]c(=S)[nH]c(=O)c1C(c1ccccc1)N3 (stereo not drawn),33.5 µg/mL,14.25 µg/mL,70.4%
O=c1[nH]c(=S)[nH]c2c1C(c1ccccc1Cl)Nc1nc3c(cc1-2)-c1[nH]c(=S)[nH]c(=O)c1C(c1ccccc1Cl)N3 (stereo not drawn),25.07 µg/mL,12.41 µg/mL,80.6%
O=c1[nH]c(=S)[nH]c2c1C(c1ccccc1)Nc1cc3c(cc1-2)NC(c1ccccc1)c1c-3[nH]c(=S)[nH]c1=O (stereo not drawn),32.1 µg/mL,12.62 µg/mL,79.6%
O=c1[nH]c(=S)[nH]c2c1C(c1ccccc1[N+](=O)[O-])Nc1cc3c(cc1-2)NC(c1ccccc1[N+](=O)[O-])c1c-3[nH]c(=S)[nH]c1=O (stereo not drawn),29.5 µg/mL,12.15 µg/mL,82%
O=c1[nH]c2c(c(=O)[nH]1)C(c1ccccc1[N+](=O)[O-])Nc1nc3c(cc1-2)-c1[nH]c(=O)[nH]c(=O)c1C(c1ccccc1[N+](=O)[O-])N3 (stereo not drawn),31.39 µg/mL,13.56 µg/mL,74%
O=c1[nH]c2c(c(=O)[nH]1)C(c1cccc([N+](=O)[O-])c1)Nc1nc3c(cc1-2)-c1[nH]c(=O)[nH]c(=O)c1C(c1cccc([N+](=O)[O-])c1)N3 (stereo not drawn),34.9 µg/mL,14.24 µg/mL,70.2%
O=c1[nH]c(=S)[nH]c2c1C(c1ccccc1Cl)Nc1cc3c(cc1-2)NC(c1ccccc1Cl)c1c-3[nH]c(=S)[nH]c1=O (stereo not drawn),24.46 µg/mL,11.99 µg/mL,84.1%
